Like-named read-outs stand apart in the source and are kept apart here.

In experiment [1] the test system is Beet Armyworm (Spodoptera exigua). As to the kind of experiment: Insecticidal diet-surface test for beet armyworm. To be noted: 120 h, second-instar larvae on treated diet, 50 μg/cm^2 on diet surface, 5 days after treatment, 8 insects per treatment, read-out: LAPHEG AVG % Mortality (50 μg/cm^2). It counts as in vivo. Here is the method:
(§1) The compounds identified in Table 1 were tested against beet armyworm and corn earworm as follows:
(§2) Insecticidal Test for Corn Earworm (Helicoverpa zea) and Beet Armyworm (Spodoptera exigua).
(§3) To prepare test solution, the test compound was formulated at 2000 ppm solution as 4 mg/2 mL of 9 acetone:1 tap water. 50 μL of the 2000 ppm (equivalent to 50 μg/cm^2 dose on diet surface area) test solution was pipetted upon the surface of 1 mL of lepidopteran diet (Southland Multi-Species Lepidopteran Diet) contained in each of eight wells per insect species (one well=1 replication). A second-instar corn earworm and beet armyworm was placed upon the treated diet in each well once the solvent had air-dried. Trays containing the treated diet and larvae were covered and then held in a growth chamber at 25° C., 50-55% RH, and 16 hr light:8 hr dark for 5 days. Observation were conducted 5 days after treatment and infestation. The number of dead insects of 8 per species per treatment was then determined and the results are given in Table 2 as a percent control at a dose of […].

Experiment [2] has as its system Corn Earworm (Helicoverpa zea). Nature of the experiment: Insecticidal diet-surface test for corn earworm. It counts as in vivo. The settings on record: 120 h, read-out: HELIZE AVG % Mortality (50 μg/cm^2). Here is the method:
as §1, §2, §3

Where [3] appears, read: second-instar larvae on treated diet, 50 μg/cm^2 on diet surface, 5 days after treatment, 8 insects per treatment.

As to `O=C(Nc1ccc(C(F)(F)F)cc1)Nc1nc(OCC(F)(F)F)cc(OCC(F)(F)F)n1` [Compound 1, N′-[4,6-bis(2,2,2-trifluoroethoxy)pyrimidin-2-yl]-N-[4-(trifluoro-methyl)phenyl]urea], the mortality at 50 µg/cm2 in experiment [1] and in experiment [2] (setting [3]) was 100% each time.
Take `O=C(Nc1ccc(C(F)(F)F)cc1)Nc1nc(OCC(F)F)cc(OCC(F)F)n1` [Compound 2]: the mortality at 50 µg/cm2 in experiment [1] and in experiment [2] (setting [3]) was 100% in each case.
In the case of `O=C(Nc1ccc(OC(F)(F)F)cc1)Nc1nc(OCC(F)(F)F)cc(OCC(F)(F)F)n1` [Compound 3, N-(4-trifluoromethoxyphenyl)-N′-[4,6-(2,2,2-trifluoroethoxy)pyrimidin-2-yl]urea], the mortality at 50 µg/cm2 in experiment [1] and in experiment [2] (setting [3]) was 100% each time.
Consider `N#Cc1ccc(NC(=O)Nc2nc(OCC(F)(F)F)cc(OCC(F)(F)F)n2)cc1` [Compound 4], for which the mortality at 50 µg/cm2 in experiment [1] was found to be 0%; in experiment [2] (setting [3]), 100%.
For `O=C(Nc1ccc(Cl)c(Cl)c1)Nc1nc(OCC(F)(F)F)cc(OCC(F)(F)F)n1` [Compound 5] the same measures were 25% and 50%.
On the same counts, the results for `O=C(Nc1ccc(C(F)(F)F)cc1)Nc1nc(OCC(F)(F)F)cc(SCC(F)(F)F)n1` [Compound 6] are 0% and 63%.
For `CN(C(=O)Nc1nc(OCC(F)(F)F)cc(OCC(F)(F)F)n1)c1ccc(OC(F)(F)F)cc1` [Compound 7, N′-[4,6-bis(2,2,2-trifluoroethoxy)pyrimidin-2-yl]-N-methyl-N-[4-(trifluoromethoxy)phenyl]urea] the same measures were 100% and 100%.
Regarding `O=C(NNc1ccc(Cl)cc1)Nc1nc(OCC(F)(F)F)cc(OCC(F)(F)F)n1` [Compound 9], the figures for the mortality at 50 µg/cm2 in experiment [1] and in experiment [2] (setting [3]) were 100% and 88%, respectively.
As to `CN(C(=O)Nc1ccc(OC(F)(F)F)cc1)c1nc(OCC(F)(F)F)cc(OCC(F)(F)F)n1` [Compound 10], the mortality at 50 µg/cm2 in experiment [1] is 100%; in experiment [2] (setting [3]), 0%.
On the same counts, the results for `CN(C(=O)N(C)c1nc(OCC(F)(F)F)cc(OCC(F)(F)F)n1)c1ccc(OC(F)(F)F)cc1` [Compound 11, N-[4,6-bis(2,2,2-trifluoroethoxy)pyrimidin-2-yl]-N,N′-dimethyl-N-[4-(trifluoromethoxy)phenyl]urea] are 100% and 100%.
Consider `CN(C(=O)N(C)c1nc(OCC(F)(F)F)cc(OCC(F)(F)F)n1)c1ccc(C(F)(F)F)cc1` [Compound 12], for which the mortality at 50 µg/cm2 in experiment [1] and in experiment [2] (setting [3]) was 100% throughout.
For the compound `CC(=O)OCN(C(=O)Nc1ccc(C(F)(F)F)cc1)c1nc(OCC(F)(F)F)cc(OCC(F)(F)F)n1` [Compound 13], the mortality at 50 µg/cm2 in experiment [1] and in experiment [2] (setting [3]) was 100% throughout.
Consider `O=C(Nc1ccc(OC(F)(F)C(F)F)cc1)Nc1nc(OCC(F)(F)F)cc(OCC(F)(F)F)n1` [Compound 14], for which the mortality at 50 µg/cm2 in experiment [1] and in experiment [2] (setting [3]) was 100% in each case.
Regarding `O=C(Nc1ccc(OCC(F)F)cc1)Nc1nc(OCC(F)(F)F)cc(OCC(F)(F)F)n1` [Compound 15], the mortality at 50 µg/cm2 in experiment [1] is 75%; in experiment [2] (setting [3]) it was 50%.
On the same counts, the results for `O=C(Nc1ccc(OC(F)=C(Cl)Cl)cc1)Nc1nc(OCC(F)(F)F)cc(OCC(F)(F)F)n1` [Compound 16] are 100% and 0%.
For `CC(Oc1ccc(NC(=O)Nc2nc(OCC(F)(F)F)cc(OCC(F)(F)F)n2)cc1)C(F)(F)F` (stereo not drawn) [Compound 17] the same measures were 100% and 0%.
On the same counts, the results for `CCOCN(C(=O)Nc1ccc(C(F)(F)F)cc1)c1nc(OCC(F)(F)F)cc(OCC(F)(F)F)n1` [Compound 18] are 100% and 100%.
For the compound `O=C(Nc1ccc(C(F)(F)F)cc1)N(COCc1ccccc1)c1nc(OCC(F)(F)F)cc(OCC(F)(F)F)n1` [Compound 19, N-Benzyloxymethyl-N-[4,6-bis-(2,2,2-trifluoroethoxy)pyrimidin-2-yl]-N′-[(4-trifluoromethyl)phenyl]urea], the mortality at 50 µg/cm2 in experiment [1] and in experiment [2] (setting [3]) was 100% in each case.
Turning to `O=C(Nc1ccc(Cl)cc1)Nc1nc(OCC(F)(F)F)cc(OCC(F)(F)F)n1` [Compound 20], the mortality at 50 µg/cm2 in experiment [1] and in experiment [2] (setting [3]) was 100% each time.
For the compound `CN(C(=O)Nc1nc(OCC(F)(F)F)cc(OCC(F)(F)F)n1)c1ccc(Cl)cc1` [Compound 21], the mortality at 50 µg/cm2 in experiment [1] and in experiment [2] (setting [3]) was 100% each time.
Consider `O=C(Nc1ccc(Br)cc1)Nc1nc(OCC(F)(F)F)cc(OCC(F)(F)F)n1` [Compound 22], for which the mortality at 50 µg/cm2 in experiment [1] and in experiment [2] (setting [3]) was 100% in each case.
With `O=C(Nc1ccc(C(F)(F)F)nc1)Nc1nc(OCC(F)(F)F)cc(OCC(F)(F)F)n1` [Compound 24], the mortality at 50 µg/cm2 in experiment [1] and in experiment [2] (setting [3]) was 100% each time.
For the compound `CCCN(C(=O)Nc1nc(OCC(F)(F)F)cc(OCC(F)(F)F)n1)c1ccc(OC(F)(F)F)cc1` [Compound 26], the mortality at 50 µg/cm2 in experiment [1] and in experiment [2] (setting [3]) was 100% each time.
As to `CCN(C(=O)Nc1nc(OCC(F)(F)F)cc(OCC(F)(F)F)n1)c1ccc(OC(F)(F)F)cc1` [Compound 27], the mortality at 50 µg/cm2 in experiment [1] and in experiment [2] (setting [3]) was 100% each time.
`COC(=O)CN(C(=O)Nc1nc(OCC(F)(F)F)cc(OCC(F)(F)F)n1)c1ccc(OC(F)(F)F)cc1` [Compound 28]: the mortality at 50 µg/cm2 in experiment [1] and in experiment [2] (setting [3]) was 100% each time.
With `CN(C(=O)Nc1nc(OCC(F)(F)F)cc(OCC(F)(F)F)n1)c1ccc(OC(F)(F)C(F)F)cc1` [Compound 29], the mortality at 50 µg/cm2 in experiment [1] and in experiment [2] (setting [3]) was 100% in each case.
Consider `O=C1CN(c2ccc(OC(F)(F)F)cc2)C(=O)N1c1nc(OCC(F)(F)F)cc(OCC(F)(F)F)n1` [Compound 30], for which the mortality at 50 µg/cm2 amounted to 88% in experiment [1] and 100% in experiment [2] (setting [3]).
On the same counts, the results for `CN(C(=O)Nc1nc(OCC(F)(F)F)cc(OCC(F)(F)F)n1)c1ccc(C(F)(F)F)cc1` [Compound 31] are 100% and 100%.
Regarding `O=C(O)CN(C(=O)Nc1nc(OCC(F)(F)F)cc(OCC(F)(F)F)n1)c1ccc(OC(F)(F)F)cc1` [Compound 32], the mortality at 50 µg/cm2 in experiment [1] and in experiment [2] (setting [3]) was 100% in each case.
Consider `CCOCN(C(=O)N(COCc1ccccc1)c1nc(OCC(F)(F)F)cc(OCC(F)(F)F)n1)c1ccc(C(F)(F)F)cc1` [Compound 33, N-Benzyloxymethyl-N-[4,6-bis(2,2,2-trifluoroethoxy)pyrimidin-2-yl]-N′-ethoxymethyl-N′-[4-(trifluoromethyl)phenyl]urea], for which the mortality at 50 µg/cm2 in experiment [1] and in experiment [2] (setting [3]) was 100% each time.
Turning to `CCOCN(C(=O)Nc1nc(OCC(F)(F)F)cc(OCC(F)(F)F)n1)c1ccc(C(F)(F)F)cc1` [Compound 34, N′-[4,6-Bis(2,2,2-trifluoroethoxy)pyrimidin-2-yl]-N-ethoxymethyl-N-(4-trifluoromethylphenyl)urea], the mortality at 50 µg/cm2 in experiment [1] and in experiment [2] (setting [3]) was 100% throughout.
For the compound `CCOC(=O)N(C(=O)Nc1nc(OCC(F)(F)F)cc(OCC(F)(F)F)n1)c1ccc(C(F)(F)F)cc1` [Compound 35], the mortality at 50 µg/cm2 in experiment [1] and in experiment [2] was 100% throughout.
As for `CCOC(=O)N(C(=O)N(COCc1ccccc1)c1nc(OCC(F)(F)F)cc(OCC(F)(F)F)n1)c1ccc(C(F)(F)F)cc1` [Compound 36], the mortality at 50 µg/cm2 in experiment [1] and in experiment [2] was 100% throughout.
As for `COCN(C(=O)N(COCc1ccccc1)c1nc(OCC(F)(F)F)cc(OCC(F)(F)F)n1)c1ccc(C(F)(F)F)cc1` [Compound 37], the mortality at 50 µg/cm2 in experiment [1] and in experiment [2] (setting [3]) was 100% throughout.
In the case of `CC(=O)OCN(C(=O)Nc1nc(OCC(F)(F)F)cc(OCC(F)(F)F)n1)c1ccc(C(F)(F)F)cc1` [Compound 38], the mortality at 50 µg/cm2 in experiment [1] and in experiment [2] (setting [3]) was 100% in each case.
Regarding `COCN(C(=O)Nc1nc(OCC(F)(F)F)cc(OCC(F)(F)F)n1)c1ccc(C(F)(F)F)cc1` [Compound 39], the mortality at 50 µg/cm2 in experiment [1] and in experiment [2] (setting [3]) was 100% in each case.
Regarding `CCN(C(=O)Nc1nc(OCC(F)(F)F)cc(OCC(F)(F)F)n1)c1ccc(Br)cc1` [Compound 40], the mortality at 50 µg/cm2 in experiment [1] and in experiment [2] (setting [3]) was 100% in each case.
Take `CN(C(=O)Nc1nc(OCC(F)(F)F)cc(OCC(F)(F)F)n1)c1ccc(Br)cc1` [Compound 41, N′-[4,6-bis(2,2,2-trifluoroethoxy)pyrimidin-2-yl]-N-methyl-N-(4-bromophenyl)urea]: the mortality at 50 µg/cm2 in experiment [1] and in experiment [2] (setting [3]) was 100% each time.
On to `CN(C(=O)Nc1nc(OCC(F)(F)F)cc(OCC(F)(F)F)n1)c1ccc(Br)nc1` [Compound 42], for which the mortality at 50 µg/cm2 in experiment [1] and in experiment [2] (setting [3]) was 100% throughout.

The record behind these values is patent publication US8455649B2, “Insecticidal substituted azinyl derivatives” (Dow AgroSciences, LLC, priority 2007, dated 2013).
